Values joined by “and” are separate entries in the source; they are usually repeats but may differ in a detail not shown here. Equal entries are not always repeated.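 Cultured in 96-well plates, cells were exposed to test compound for 48 hours across five concentrations. GI50 marks 50% less growth. Definition used: TGI = concentration required for complete inhibition of growth.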
Tested on: MDA-MB-468 breast
Test: NCI anticancer screen, dose series, 48 h

SMILES	GI50	TGI
O=C(Nc1ccccc1OC(=O)c1ccccc1)c1ccccc1	5.64 µM	> 100 µM
N/C(=N\OC(=O)c1ccccc1)C(Cc1ccccc1)C(=O)NOC(=O)c1ccccc1 (stereo not given)	4.1 µM	17.5 µM
COc1cc(/C=C/c2ccc3c(Br)cc(Br)c(O)c3n2)ccc1O	1.38 µM	5.29 µM
COc1cc2c(cc1F)C(c1ccccc1Cl)=Nc1c(n[nH]c1C)N2	0.342 µM	3.73 µM
COc1ccc(/C=C(/C)[N+](=O)[O-])cc1OC	1.34 µM and 1.15 µM	2.77 µM and 2.53 µM
COc1ccc2c(c1)C(=O)c1c-2c(OCCN(C)C)nc2ccccc12	2.76 µM	11.3 µM
COc1ccc(Nc2ccc([N+](=O)[O-])cc2[N+](=O)[O-])cc1CN(CCCl)CCCl	1.99 µM	5.09 µM
O=C(CN1N=C(c2ccc(F)cc2)CCC1=O)Nc1nc2ccccc2s1	21.1 µM	85.9 µM
COc1cc(C(=O)c2cc(C)c3[nH]c4ccc(O)cc4c3c2C)cc(OC)c1OC	< 0.0157 µM	1.06 µM
CC1C=CC(OC(=O)C(C)(O)CCC(O)(C(=O)OC2CC(O)C(C(C)C)CC2(C)O)C(C)C)(C(C)C)CC1 (stereo not given)	0.36 µM	1.22 µM
COc1ccc(Nc2ccnc(N3CCN(c4ccnc5cc(Cl)ccc45)CC3)n2)cc1	1.5 µM	> 100 µM
COc1cc(-c2nn(-c3cccc(NC(=O)CCN4CCN(Cc5ccccc5)CC4)c3)cc2-c2ccncc2)ccc1Cl	0.433 µM	16.2 µM
Cc1[nH]c(-c2cc(N)ccc2Cl)c2c1C(=O)CCCC2	1.9 µM	9.46 µM
CC1c2ccccc2CCN1c1ccc(CO)c(Cl)c1 (stereo not given)	0.0151 µM	0.0393 µM
Nc1n[nH]c2ccc([C@@H]3Nc4cc5c(cc4[C@H]4C6CCC(C6)[C@@H]34)C(=O)NC5)cc12 (stereo not given in full)	0.323 µM	> 100 µM
Oc1c(-c2cc(C(F)(F)F)[nH]n2)cc(Cl)c(OCc2ccc(Cl)cc2)c1-c1ccc(Cl)c(C(F)(F)F)c1	0.208 µM	1.66 µM
N#CCCNc1nonc1-c1nc2ccccc2n1CC(=O)c1ccc(NC(=O)[C@@H](N)CCCCN)cc1	0.0236 µM	–
CN1CCc2nc3sc(C(N)=O)c(N)c3c(-c3cccs3)c2C1	1.75 µM	4.86 µM
COc1cccc(Oc2ccccc2NC(=O)CNC(=O)c2cccc3ccccc23)c1	0.331 µM	> 25 µM

SMILES	GI50	TGI
CC(C)C[C@H](NC(=O)CCn1ccc2ccccc2c1=O)B(O)O	1.38 µM	7.08 µM
CCN1C(=O)N(CC)C2C1NN=c1s/c(=C\c3ccc(F)cc3)c(=O)n12 (stereo not given)	0.168 µM	> 100 µM
COc1ccc2c(-c3ccnc(Nc4cccc(OC(F)(F)F)c4)n3)cnn2n1	1.26 µM	4.69 µM
Oc1cccc2c1NCCC2	1.83 µM	8.49 µM
Cc1ccncc1C(N)=O	> 100 µM	> 100 µM
CN1CCN(CCCCCN=c2cc3c(=O)n(CCCCCN4CCN(C)CC4)c(=O)c4c(NCCCCCN5CCN(C)CC5)cc5c(O)n(CCCCCN6CCN(C)CC6)c(=O)c2c5c4-3)CC1	2.26 µM	6.31 µM
O=C1C(OCCOc2ccccc2)=C(OCCOc2ccccc2)C(=O)c2ccccc21	9.92 µM	> 100 µM
O=C(CSc1nnc(-c2ccc(Cl)cc2)n1-c1ccccc1)Nc1ccc(Cl)cc1	2.83 µM	8.27 µM
COc1ccc(/C=C(\C)[N+](=O)[O-])cc1OC	1.48 µM	3.05 µM
C[n+]1c2ccccc2nc2c(N)cc(N)cc21	1.18 µM	4.98 µM
O=Nc1c(-c2c(O)[nH]c3ncccc23)[nH]c2ccccc12	4.12 µM	> 100 µM
c1ccc(N=C2c3ccsc3C(=Nc3ccccc3)c3ccsc32)cc1	1.78 µM	3.61 µM
C=CCc1cc(Nc2c3ccc(Cl)cc3nc3ccc(OC)cc23)cc(CN(CC)CC)c1O	0.546 µM	3.24 µM
CCc1c(C)nc2sc3c(N)ncnc3c2c1C	> 25 µM	> 25 µM
COc1cc(C(=O)Nc2cc(O)c(CC=C(C)C)c(O)c2)cc2c1O[C@]1(C)CC[C@@H](O)C(C)(C)[C@H]1C2	0.648 µM	32.9 µM
CCOC(=O)c1c(NC(=O)c2cccc(C(F)(F)F)c2)sc2c3c(ccc12)OCN(C)C3	1.52 µM	2.97 µM
O=c1c2cc(F)ccc2sc2c(NCCCNCCO)nc3ccccc3c12	1.09 µM	2.43 µM
C[C@@H]1Cc2cc(O)ccc2[C@H]2CC[C@]3(C)/C(=C/COCCN(C)C)CC[C@H]3[C@H]12 (tested in a mixture with another compound)	1.07 µM	3.2 µM
FC(F)(F)c1cccc(-c2nn3ncccc3c2-c2ccnc(Nc3ccc4c(c3)OCCO4)n2)c1	3.97 µM	17.9 µM

From PubChem BioAssay (NCI)
